Experimental data as given in PubChem BioAssay (NCI).
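In this assay, cells in 96-well plates receive the compound at five concentrations for 48 hours. Endpoints are linearly interpolated between the surrounding concentrations. TGI: concentration producing complete growth inhibition.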

Legend:
Assay in all cases: NCI-60 cell line screen, 48 h
[1] = tested on: ACHN renal
[2] = tested on: EKVX NSCLC
[3] = tested on: HT29 colon
[4] = tested on: LOX IMVI melanoma
[5] = tested on: NCI-H23 lung
[6] = tested on: OVCAR-3 ovarian
[7] = tested on: SF-268 CNS
[8] = tested on: SK-OV-3 ovarian
[9] = tested on: SW-620 colon
[10] = tested on: UACC-62 melanoma

Row | SMILES | TGI [1] [µM] | TGI [2] [µM] | TGI [3] [µM] | TGI [4] [µM] | TGI [5] [µM] | TGI [6] [µM] | TGI [7] [µM] | TGI [8] [µM] | TGI [9] [µM] | TGI [10] [µM]
1 | CC(=O)N(CN1C(=O)CCC1C(=O)O)c1ccccc1Cl (stereo not given) | > 100 | > 100 | > 100 | > 100 | > 100 | > 100 | > 100 | > 100 | > 100 | > 100
2 | COP(C)(=O)C(Cc1c[nH]c2ccccc12)NC(=O)OCc1ccccc1 (stereo not given) | > 100 | > 100 | > 100 | > 100 | > 100 | > 100 | > 100 | > 100 | > 100 | > 100
3 | CC1(C)CC2C(C1=O)C1(C)CCCC2(C)C1=O (stereo not given) | > 100 | > 100 | > 100 | > 100 | > 100 | > 100 | > 100 | > 100 | > 100 | > 100
4 | C=CC(Br)(CBr)CCC(Br)C(C)C (stereo not given) | 20.6 | 32.3 | 8.4 | 3.1 | 20.8 | 8.9 | 25.7 | 30.2 | 5.38 | 12.5
5 | N#C/C(=C\c1ccccc1Br)C(=O)c1ccccc1 | > 89.6 | > 100 | > 100 | 28.3 | > 62.2 | > 69.2 | > 85.4 | > 100 | > 45.7 | 87.5
6 | CC(=O)CC(=O)/C=C/c1cccs1 | > 100 | > 100 | > 100 | > 100 | > 100 | > 100 | > 100 | > 100 | > 100 | > 100
7 | COc1ccc(C[C@@H]2OC3(C=CC(=O)C=C3)O[C@H]2Cc2ccc(OC)cc2)cc1 | 1.16 | 3.7 | 2.18 | 0.377 | 3.53 | 2.31 | 3.07 | 13.5 | 0.383 | 3.7
8 | C#CCOC(=O)C(N)CCSC (stereo not given) | > 100 | > 100 | > 100 | > 100 | > 100 | > 100 | > 100 | > 100 | > 100 | > 100
9 | COC(=O)[C@H](CCSC)NC(=O)c1ccc(CNC(=O)/C(C)=C/c2ccccc2)cc1 | > 100 | > 100 | 42.7 | > 100 | > 100 | > 100 | 70.1 | > 100 | > 100 | > 100
10 | CC1CN=C(c2ccc(COc3ccc(C4=NCC(C)N4)cc3)cc2)N1 (stereo not given) | > 100 | > 100 | > 100 | > 100 | > 100 | > 100 | > 100 | > 100 | > 100 | > 100
11 | O=[N+]([O-])c1ccc2ncccc2c1CCc1c([N+](=O)[O-])ccc2ncccc12 | > 100 | > 100 | > 100 | > 100 | > 100 | > 100 | > 100 | > 100 | > 100 | > 100
12 | CCCCCCCCCCCCCCCCP(=O)([O-])OCC[N+](C)(C)C | 31.9 | 39.1 | 25.5 | 29 | 40 | 31.6 | 34.1 | 24.6 | 29.7 | 29.3
13 | Cc1cc(C)c(N=Nc2c(O)c(S(=O)(=O)O)cc3cc(S(=O)(=O)O)ccc23)cc1C | > 100 | > 100 | > 100 | > 100 | > 100 | > 100 | > 100 | > 100 | > 100 | > 100
14 | CC1=CC(=O)/C(=C/n2c(=S)[nH]c3ccccc32)C(=O)O1 | > 100 | > 100 | > 100 | > 100 | > 100 | > 100 | > 100 | > 100 | > 100 | > 100
15 | O=C1C[C@H](c2ccc(O)c(O)c2)Oc2cc(O)cc(O)c21 | > 100 | > 100 | > 100 | > 100 | > 100 | > 100 | > 100 | > 100 | > 100 | > 100
16 | N=C(c1cccs1)C1(N2CCCCC2)CCCCC1 | 30.5 | 41.3 | 34.5 | 47.9 | 43.5 | 30.3 | 50.8 | 46.8 | 34.7 | 31
17 | CCCC1(N)CC(OC)OC(C)C1O (stereo not given) | > 100 | > 100 | > 100 | > 100 | > 100 | > 100 | > 100 | > 100 | > 100 | > 100
18 | COc1ccc(C2C(Cl)C(=O)N2NC(=O)Cc2ccccc2)cc1OC (stereo not given) | > 100 | > 100 | > 100 | > 100 | > 100 | > 100 | > 100 | > 100 | > 100 | > 100
19 | C=CCC(SC)C1=C(C)C(=O)c2ccccc21 (stereo not given) | > 10 | > 10 | > 10 | > 10 | > 10 | > 10 | > 10 | > 10 | > 10 | > 10
20 | C=CC1(c2ccc(OC)cc2)OCCCO1 | > 100 | 34.6 | > 100 | > 100 | > 100 | > 100 | > 100 | > 100 | > 100 | > 100
21 | COc1cccc(-c2cc(=O)c3cc(Cl)cnc3[nH]2)c1 | 55.4 | > 100 | 13.8 | > 100 | 8.3 | > 43 | > 87.3 | 74.8 | > 100 | > 55.6
22 | O=S(=O)(/N=C(\NO)Nc1ccc(Cl)cc1)c1ccc(-c2ccccn2)s1 | > 100 | 98.8 | > 100 | > 100 | > 100 | 40.2 | > 100 | > 100 | > 100 | > 100
23 | Nc1ccc(-c2nc3ccccc3s2)cc1Br | > 100 | > 100 | > 100 | > 100 | > 100 | > 100 | > 100 | > 100 | > 100 | > 100
24 | CCN(CC)CCNc1ccc2ncn3c4cc(=O)ccc4c(O)c1c23 | 10.6 | 23 | 11.5 | 5.91 | 14.6 | 6.36 | 12.1 | 41.9 | 21 | 14
25 | Cc1sc2nc3n(c(=O)c2c1C)N=C(c1ccc([N+](=O)[O-])cc1)CS3 | > 100 | > 100 | > 100 | > 100 | > 100 | > 100 | > 100 | > 100 | > 100 | > 100
26 | C=CCN1CCC2(CC1)NC(=O)c1ccccc1O2 | > 100 | > 100 | > 100 | > 100 | > 100 | > 100 | > 100 | > 100 | > 100 | > 100
27 | C=CCC(CNC(=O)OCc1ccccc1)OC(=O)OCc1ccccc1 (stereo not given) | > 100 | > 100 | > 100 | > 100 | > 100 | > 100 | > 100 | > 100 | > 100 | > 100
28 | CCN(CC)CCC(=O)c1ccc(Oc2ccc(F)cc2)cc1 | 32.4 | 39.4 | 38.6 | 28.8 | 45.9 | 34.5 | 35.5 | > 100 | 32.7 | 31.9
